Like-named read-outs stand apart in the source and are kept apart here.
Columns and labels:
[1] = test system: Walker carcinoma cells; assay: Inhibition of multiplication of Walker cells (cell proliferation), single active material or combination, Chou and Talalay analysis; format: cell-based, rat
Protocol: Dose-action curves for individual active materials or active material combinations were obtained by the addition of corresponding active materials to a suspension of Walker cells (10^5 cells/ml.). After an incubation time of 48 hours, the cells were counted with the help of an electronic counter (Coulter Electronics, Luton, U.K.). The multiplication of the cells (M) was calculated according to the following formula:
in which C stands for the untreated control cells, T signifies the number of treated cells and the indices 0 and t indicate the number of the cells at the time point 0 and after 48 h.
The data used for the calculation originated from at least three different experiments.

[2] = target: protein kinase C; assay: Inhibition of protein kinase C (PK-C): in vitro method, 32P incorporation into H1 histone; format: biochemical, rat
Protocol: b) Inhibition of protein kinase C (PK-C): in vitro method.
However, to the extracts was additionally added 1 mM phenylmethanesulphonyl chloride, 20 μg./ml. leupeptin and 2 μg./ml. aprotinin. […] 1,2-s,n-diolein. The reaction time was 10 minutes at 32° C. The enzyme reaction was stopped by the addition of 1 ml. 20% trichloroacetic acid (w/v). The protein was precipitated out on Whatman GF/F filter paper and counted with the help of a liquid scintillation counter.
Quercetin was solubilised in dimethyl sulphoxide (DMSO). For the batch mixing, the solution in DMSO was made up to a DMSO end concentration of 1%. An equivalent amount of pure DMSO was added to the control groups. The influence of quercetin on the cell multiplication was investigated by the addition of the active material in DMSO to the culture medium up to an end concentration of 0.1%. The cells were cultured in the presence of the active material for 48 hours. The control group only received pure DMSO.

[3] = test system: Meth A-fibrosarcoma cells; assay: [3H]-Thymidine incorporation, inhibition of tumour cell proliferation; format: cell-based; conditions: Table 2; ilmofosin alone; read-out: IC50, inhibition of tumour cell proliferation, single active material
Protocol: b) [3H]-Thymidine incorporation.
The cytostatic or cytotoxic effect of the active materials or active material combinations on Meth A-fibrosarcoma cells was investigated in vitro on the basis of the reduced incorporation of [3H]-thymidine. The cells were suspended in DMEM, 10% FCS, 50 μM 2-mercaptoethanol, 100 U/ml. penicillin and 100 μg./ml. streptomycin up to an end concentration of 5×10^4 /ml. in the absence of the active materials. The active materials were added to the cells in an end volume of 20 μl. Per concentration, 6 cultures of 0.2 ml. were used and incubated in microtitre plates in a moist atmosphere. The cultures were pulsed for 3 hours with 1 μCi […] [methyl-^3 H]-thymidine(specific activity 5 Ci/mmol). The samples were subsequently collected and washed several times. The filter plates used were dried and transferred to scintillation test tubes. The radio-active incorporation was measured by the addition of Rotiscint.
The IC50 values for a combination of ilmofosin with CDDP or doxorubicin were determined in the manner described above in Example 7b).

[4] = Rattus norvegicus, 48 h; read-out: IC50 cell proliferation in combination with cis-DDP
[5] = Table 1, 50% inhibition of the protein kinase C, read-out: inhibition of the protein kinase C IC50
[6] = combination of the inhibitor with cis-DDP, 48 hours; method of Chou and Talalay
[7] = protein kinase C enriched from Walker cells, 10 minutes at 32° C., pH 7.4, read-out: IC50, inhibition of protein kinase C (Examples 2-6)
[8] = Rattus norvegicus, 48 h, read-out: IC50 cell proliferation
[9] = Rattus norvegicus, 48 h, read-out: IC50 cell proliferation in combination with cis-DDP

IC50 [1, 4] [µM]	SMILES	IC50 [2, 5] [µM]	nature of the activity [1, 6]	IC50 [2, 7] [µM]	IC50 [1, 8] [µM]	IC50 [1, 9] [µM]	also measured
1.7	CCCCCCCCCCCCCCCCCCOCC(COP(=O)([O-])OCC[N+](C)(C)C)OC (stereo not drawn) [ET-18-OCH3, 4-hydroxy-7-methoxy-N,N,N-trimethyl-3,5,9-trioxa-4-phosphaheptacosan-1-aminium 4-oxide]						IC50 ([1]; Rattus norvegicus; Table 1; single active material, 48 hours; read-out: IC50 cell proliferation): 5.8 µM
	N.N.[Cl][Pt][Cl] [cis-DDP, cis-diammine-dichloroplatinum (II)]	> 1000					IC50 ([1]; Table 1; single active material, 48 hours; read-out: IC50 cell proliferation): 0.23 µM
2	CCCCCCCCCCCCCCCCSCC(COC)COP(=O)([O-])OCC[N+](C)(C)C (stereo not drawn) [ilmofosin]	0.56	synergism	20			IC50 [3]: 1.06 µg/mL
	O=c1c(O)c(-c2ccc(O)c(O)c2)oc2cc(O)cc(O)c12 [quercetin, 3,3',4',5,7-pentahydroxyflavone]	25	synergism	25	23	3.8	
	CN[C@@H]1C[C@H]2O[C@@](C)([C@@H]1OC)n1c3ccccc3c3c4c(c5c6ccccc6n2c5c31)C(=O)NC4 [staurosporin]		synergism		0.4	0.004	
	CC/C(=C(\c1ccccc1)c1ccc(OCCN(C)C)cc1)c1ccccc1 [tamoxifen]		synergism				

Source: patent US5770593A, “Method of determining a pharmaceutical combination preparations for use in anti-neoplastic therapy” (Boehringer Mannheim GmbH, priority 1988, dated 1998)
